Experimental data as given in DBAASP.
Converted amounts (≈) assume the structure as drawn. “And” between values parts separate entries of the source, which are not always exact repeats. Identical values can stand only once. Values belong to the compound of their own block, whether it stands above or below them.

Legend:
Experiment in all cases: ≥ marks a high value that may be exact or a test limit, other limits are often not marked, values filed in µg/mL are converted to µM
Candida albicans = test system: Candida albicans
[1] = test system: Pseudomonas aeruginosa ATCC 27853
[2] = test system: Staphylococcus aureus ATCC 49476
Staphylococcus aureus MR = test system: Staphylococcus aureus MR
Bacillus subtilis 168 = test system: Bacillus subtilis 168
[3] = test system: Micrococcus luteus CCM 144
[4] = test system: Staphylococcus aureus MU50
[5] = test system: Staphylococcus aureus VRSA1
Bacillus cereus = test system: Bacillus cereus
Escherichia coli = test system: Escherichia coli
Leuconostoc lactis = test system: Leuconostoc lactis
Listeria innocua = test system: Listeria innocua
Micrococcus luteus = test system: Micrococcus luteus
Pasteurella multocida = test system: Pasteurella multocida
Staphylococcus aureus = test system: Staphylococcus aureus
[6] = test system: Staphylococcus epidermidis
Streptococcus uberis = test system: Streptococcus uberis
[7] = test system: Bacillus subtilis IFO 3513
[8] = test system: Escherichia coli IFO 12734
[9] = test system: Micrococcus luteus ATCC 9341
[10] = test system: Staphylococcus aureus IFO 12732
[11] = test system: Bacillus subtilis KCTC 3068
[12] = test system: Escherichia coli KCTC 1682
[13] = test system: Pseudomonas aeruginosa KCTC 1637
[14] = test system: Salmonella typhimurium KCTC 1926
[15] = test system: Staphylococcus aureus KCTC 1916
[16] = test system: Staphylococcus epidermidis KCTC 1917
Klebsiella aerogenes = test system: Klebsiella aerogenes
[17] = test system: Pseudomonas aeruginosa PAO1
[18] = test system: Aspergillus flavus KCTC 7375
[19] = test system: Bacillus megaterium KCTC 1096
[20] = test system: Bacillus subtilis KCTC 1918
[21] = test system: Candida albicans KCTC 7121
[22] = test system: Fusarium oxysporum KCTC 6084
Proteus vulgaris = test system: Proteus vulgaris
[23] = test system: Staphylococcus aureus KCTC 1621
[24] = test system: Trichosporon beigelii KCTC 7251

MIC (Candida albicans): 42.8 µM (≈ 128 µg/mL)
MIC [1]: > 171 µM
MIC [2]: 5.36 µM (≈ 16 µg/mL)
MIC (Staphylococcus aureus MR): 5.36 µM (≈ 16 µg/mL)
Compound: CC[C@H](C)[C@H](NC(=O)[C@H](Cc1cnc[nH]1)NC(=O)[C@H](CCCCN)NC(=O)CNC(=O)[C@@H](NC(=O)[C@H](CO)NC(=O)[C@H](Cc1ccccc1)NC(=O)[C@H](CC(C)C)NC(=O)CNC(=O)CNC(=O)[C@@H](NC(=O)[C@@H](NC(=O)[C@H](Cc1cnc[nH]1)NC(=O)[C@H](Cc1cnc[nH]1)NC(=O)[C@@H](NC(=O)[C@@H](N)Cc1ccccc1)[C@@H](C)CC)[C@@H](C)CC)[C@@H](C)CC)C(C)C)C(=O)N[C@@H](Cc1cnc[nH]1)C(=O)N[C@@H](CO)C(=O)N[C@@H](CC(C)C)C(=O)N[C@H](C(=O)N[C@@H](Cc1cnc[nH]1)C(=O)N[C@@H](CCCN=C(N)N)C(=O)N[C@@H](CCCN=C(N)N)C(=O)N[C@@H](CCCN=C(N)N)C(=O)N[C@@H](CCCN=C(N)N)C(=O)O)[C@@H](C)CC [FIHHIIGGLFSVGKHIHSLIHRRRR]

MIC (Bacillus subtilis 168): 1.5 µM (≈ 6.35 µg/mL)
MIC [3]: 0.75 µM (≈ 3.17 µg/mL)
MIC (Staphylococcus aureus MR): 3.78 µM (≈ 16 µg/mL)
MIC [4]: 7.55 µM (≈ 32 µg/mL)
MIC [5]: 7.55 µM (≈ 32 µg/mL)
Compound: CC[C@H](C)[C@@H]1NC(=O)[C@@H]2CSSC[C@@H]3NC(=O)[C@H](CCCCN)NC(=O)[C@H](CC(=O)O)NC(=O)[C@H](CCC(N)=O)NC(=O)[C@H](Cc4ccccc4)NC(=O)[C@H](Cc4ccccc4)NC(=O)[C@@H]4CCCN4C(=O)[C@@H](NC(=O)[C@H](Cc4ccc(O)cc4)NC(=O)[C@H](Cc4ccc(O)cc4)NC(=O)CNC(=O)CN)CSSC[C@H](NC(=O)[C@H](Cc4ccc(O)cc4)NC(=O)CNC(=O)[C@H](C)NC(=O)[C@H](CCCCN)NC(=O)[C@H](CCCN=C(N)N)NC(=O)CNC(=O)[C@H](Cc4ccccc4)NC(=O)[C@H](CO)NC(=O)[C@H](CCCN=C(N)N)NC(=O)[C@H](CSSC[C@@H](C(=O)N[C@H](C(=O)O)C(C)C)NC1=O)NC(=O)[C@H](Cc1cnc[nH]1)NC(=O)[C@H](CCCN=C(N)N)NC(=O)[C@H](Cc1cnc[nH]1)NC3=O)C(=O)NCC(=O)NCC(=O)N[C@@H](Cc1ccccc1)C(=O)N[C@@H](CC(C)C)C(=O)N[C@@H](CCCCN)C(=O)N[C@@H](CCCCN)C(=O)N[C@@H]([C@@H](C)O)C(=O)N2 [GGYYCPFFQDKCHRHCRSFGRKAGYCGGFLKKTCICV]

MIC (Bacillus cereus): 15.3 µM (≈ 25 µg/mL)
MIC (Escherichia coli): > 61.4 µM
MIC (Leuconostoc lactis): 7.36 µM (≈ 12 µg/mL)
MIC (Listeria innocua): ≥ 61.4 µM
MIC (Micrococcus luteus): 15.3 µM (≈ 25 µg/mL)
MIC (Pasteurella multocida): ≥ 61.4 µM
MIC (Staphylococcus aureus): 15.3 µM (≈ 25 µg/mL)
MIC [6]: 15.3 µM (≈ 25 µg/mL)
MIC (Streptococcus uberis): 15.3 µM (≈ 25 µg/mL)
Compound: CC[C@H](C)[C@H](NC(=O)[C@H](CC(=O)O)NC(=O)[C@H](Cc1ccccc1)NC(=O)[C@H](CC(C)C)NC(=O)CN)C(=O)N[C@H](C(=O)N[C@@H](CCCCN)C(=O)N[C@@H](CCCCN)C(=O)N[C@H](C(=O)N[C@H](C(=O)NCC(=O)N[C@H](C(=O)N[C@H](C(=O)N[C@@H](C)C(=O)NCC(=O)N[C@@H](CC(C)C)C(N)=O)[C@@H](C)CC)[C@@H](C)O)C(C)C)C(C)C)C(C)C [GLFDIVKKVVGTIAGL]

MIC [7]: 4.05 µM (≈ 6.25 µg/mL)
MIC [8]: 16.2 µM (≈ 25 µg/mL)
MIC [9]: 25 µM (≈ 38.5 µg/mL)
MIC [10]: 2.03 µM (≈ 3.13 µg/mL)
Compound: CC[C@H](C)[C@H](N)C(=O)N[C@@H](CC(C)C)C(=O)N1CCC[C@H]1C(=O)N[C@@H](CC(C)C)C(=O)N[C@@H](CCCCN)C(=O)N[C@@H](CC(C)C)C(=O)N1CCC[C@H]1C(=O)N[C@@H](CC(C)C)C(=O)N[C@@H](CC(C)C)C(=O)N1CCC[C@H]1C(=O)N[C@@H](CC(C)C)C(=O)N[C@@H](CCCN=C(N)N)C(=O)N[C@@H](CCCN=C(N)N)C(N)=O [ILPLKLPLLPLRR]

MIC [11]: 2 µM (≈ 4.33 µg/mL)
MIC [12]: 16 µM (≈ 34.7 µg/mL)
MIC [13]: ≥ 32 µM
MIC [14]: ≥ 64 µM
MIC [15]: 8 µM (≈ 17.3 µg/mL)
MIC [16]: ≥ 32 µM
Compound: CC[C@H](C)[C@H](NC(=O)[C@H](CCCN=C(N)N)NC(=O)[C@H](CC(C)C)NC(=O)[C@H](CCC(N)=O)NC(=O)[C@H](CCCCN)NC(=O)[C@H](CC(C)C)NC(=O)[C@H](CC(C)C)NC(=O)[C@H](CC(C)C)NC(=O)[C@@H](NC(=O)[C@H](CCCCN)NC(=O)[C@H](CC(=O)O)NC(=O)[C@H](C)NC(=O)[C@@H](NC(=O)[C@H](CCCCN)NC(=O)[C@@H](N)CCCCN)C(C)C)C(C)C)C(=O)N[C@@H](CCSC)C(=O)N[C@@H](CCCN=C(N)N)C(=O)N[C@@H](CC(C)C)C(=O)O [KKVADKVLLLKQLRIMRL]

MIC (Klebsiella aerogenes): 7.77 µM and 3.88 µM
MIC [17]: 7.77 µM and 3.56 µM
Compound: CC(C)C[C@H](NC(=O)[C@H](CCCCN)NC(=O)[C@H](CCCCN)NC(=O)[C@H](Cc1ccccc1)NC(=O)[C@H](Cc1ccccc1)NC(=O)[C@H](CCCCN)NC(=O)[C@H](CCCCN)NC(=O)[C@H](Cc1ccccc1)NC(=O)[C@H](CCCN=C(N)N)NC(=O)[C@@H](N)CCCCN)C(=O)N[C@@H](CCCCN)C(=O)N[C@@H](CC(N)=O)C(=O)N[C@@H](CO)C(=O)N[C@H](C(=O)N[C@@H](CCCCN)C(=O)N[C@@H](CCCCN)C(=O)N[C@@H](CCCN=C(N)N)C(=O)N[C@@H](C)C(=O)N[C@@H](CCCCN)C(=O)N[C@@H](CCCCN)C(=O)N[C@@H](Cc1ccccc1)C(=O)N[C@@H](Cc1ccccc1)C(=O)N[C@@H](CCCCN)C(=O)N[C@@H](CCCCN)C(=O)O)C(C)C [KRFKKFFKKLKNSVKKRAKKFFKK]

MIC [7]: 7.28 µM (≈ 12.5 µg/mL)
MIC [8]: 29.1 µM (≈ 50 µg/mL)
MIC [10]: 7.28 µM (≈ 12.5 µg/mL)
Compound: CC[C@H](C)[C@H](NC(=O)[C@H](CC(C)C)NC(=O)[C@@H]1CCCN1C(=O)[C@H](Cc1c[nH]c2ccccc12)NC(=O)[C@H](CCCCN)NC(=O)[C@H](CCCCN)NC(=O)[C@@H]1CCCN1C(=O)[C@H](CCCCN)NC(=O)[C@H](CC(C)C)NC(=O)[C@@H]1CCCN1C(=O)[C@H](Cc1c[nH]c2ccccc12)NC(=O)[C@H](CCCN=C(N)N)NC(=O)[C@@H](N)CCCN=C(N)N)C(N)=O [RRWPLKPKKWPLI]

MIC [18]: ≥ 100 µM
MIC [19]: 1.56 µM (≈ 3.01 µg/mL)
MIC [20]: 0.78 µM (≈ 1.51 µg/mL)
MIC [21]: ≥ 100 µM
MIC [12]: 12.5 µM (≈ 24.1 µg/mL)
MIC [22]: ≥ 100 µM
MIC (Proteus vulgaris): 1.56 µM (≈ 3.01 µg/mL)
MIC [13]: 1.56 µM (≈ 3.01 µg/mL)
MIC [23]: 3.12 µM (≈ 6.03 µg/mL)
MIC [24]: ≥ 100 µM
Compound: CC[C@H](C)[C@H](NC(=O)[C@H](CCCCN)NC(=O)[C@H](CCCCN)NC(=O)[C@H](Cc1ccccc1)NC(=O)[C@@H](N)Cc1c[nH]c2ccccc12)C(=O)N1CCC[C@H]1C(=O)N[C@@H](CCCCN)C(=O)N[C@@H](Cc1ccccc1)C(=O)N[C@@H](CC(C)C)C(=O)N[C@@H](Cc1cnc[nH]1)C(=O)N[C@@H](CC(C)C)C(=O)N[C@@H](C)C(=O)N[C@@H](CCCCN)C(=O)N[C@@H](CCCCN)C(=O)N[C@@H](Cc1ccccc1)C(N)=O [WFKKIPKFLHLAKKF]
